According to US20220257626A1, “TREATMENT COMPRISING SGLT INHIBITORS” (Novartis AG, priority 2019, published 2022):

Experiments:
Assay type in all cases: in vivo, human
[1] = Placebo-controlled, randomized Phase 2a study in patients with NASH (CLIK066X2204, NCT03205150), interim analysis; settings: for patients reporting diarrhea (most common adverse event): 12 weeks, placebo 38.9%
Description: Method: Patients with histologically confirmed NASH (F1-F3) or phenotypic NASH (BMI≥27 kg/m^2 in non-Asians or ≥23 kg/m^2 in Asians, ALT≥50 (males) or ≥35 (females) and type 2 diabetes (T2DM)) received daily oral licogliflozin at 150 mg, 30 mg or placebo in a 2:2:1 ratio for 12 weeks (NCT03205150). The primary endpoint is the effect on ALT level after 12 weeks of treatment. Secondary endpoints include improvement in body weight, liver fat content and AST, amongst others. The study size is 110 of which 77 have completed (placebo (n=18); licogliflozin 30 mg (n=25) and licogliflozin 150 mg (n=34)) and are included in the interim analysis.

[2] = Randomized, double-blind, placebo controlled dose finding study in Japanese patients with obesity disease
Description: This study was a randomized, double-blind, placebo controlled, dose finding study to evaluate the effect of licogliflozin (2.5, 10, 25 and 50 mg qd) in 126 Japanese patients with obesity disease. The primary objective was to examine the dose-response relationship of licogliflozin treatment in body weight reduction relative to placebo at 12 weeks. The secondary objectives included assessment of responder rates, change in parameters related to complications, visceral and subcutaneous fat area, and safety through 12 weeks of treatment.

[3] = Phase 2 dose range finding study in obese patients (CLIK066B2201); settings: 30 mg QD; expected
Description: A dose of 30 mg QD is expected to achieve approximately 70% of maximum observed efficacy (using weight loss as a downstream marker for efficacy; CLIK066B2201). Licogliflozin is currently being tested as 30 mg and 150 mg QD monotherapy in NASH (CLIK066X2204). […] To minimize the risk of GI adverse effects of the SGLT1 inhibition in the gut such as diarrhea, licogliflozin will administered in the evening.

ketoacidosis ([2]; 2.5, 10, 25 and 50 mg qd, 12 weeks): no ketoacidosis
Compound: CCc1ccc([C@@H]2O[C@H](CO)[C@@H](O)[C@H](O)[C@H]2O)cc1Cc1ccc2c(c1)OCCO2 [licogliflozin, (2S,3R,4R,5S,6R)-2-(3-((2,3-dihydrobenzo[b][1,4]dioxin-6-yl)methyl)-4-ethylphenyl)-6-(hydroxymethyl)tetrahydro-2H-pyran-3,4,5-triol]
patients reporting diarrhea (most common adverse event) ([1]; 30 mg): 40%
reduction of ALT and liver fat (interim analysis) ([1]; 150 mg QD treatment group): promising reduction
incidence of gastrointestinal events (mainly diarrhea) ([1]; 150 mg QD treatment group, interim analysis): significant incidence
patients reporting diarrhea (most common adverse event) ([1]; 150 mg): 76.5%
safety and tolerability ([2]; 2.5, 10, 25 and 50 mg qd over 12 weeks): safe and well tolerated
patients who achieved reduction of ≥3% in body weight ([2]; 10, 25 and 50 mg qd dose groups, placebo 7.1%, p≤0.002 for all): ≥ 50%
share of maximum observed efficacy (weight loss as downstream marker) [3]: approximately 70%
